Results on 14 compounds are retold here after article PMC6271933, “Evaluation of the Toxicity of 5-Aryl-2-Aminoimidazole-Based Biofilm Inhibitors against Eukaryotic Cell Lines, Bone Cells and the Nematode Caenorhabditis elegans” (Molecules, 2014).

Several values for one entry are separate records, joined by “and”; a condition that tells them apart may be missing. Equal entries are not always repeated. Entries after “also recorded” stand apart in the source; their conditions may differ. Bounds are passed on as bounds.

For data set [1], the system named is HMO2, HepG2, HeLa and mouse lymphoma cells. Also noted: method as in PMID 12193030, PMID 15165143, PMID 17822294. To be noted: including HMO2, HepG2, HeLa and mouse lymphoma cells; cited from earlier work.
Data set [2] concerns human T-lymphocyte (CEM). Kind of data set: Cytostatic activity against tumor cell lines (cell number by Coulter counter). Type of data set: cell-based. Conditions: 72 h, concentration inhibiting cell proliferation by 50%, three days incubation, mean of three repeats. As for the experimental part: (§1) The IC50 was defined as the compound concentration required to inhibit cell proliferation by 50%. The therapeutic index (TI) was calculated as the ratio of the compound concentration producing toxicity (IC50) to the concentration needed to exert the desired ‘therapeutic’ effect on biofilms of Salmonella and Pseudomonas, indicated by the BIC50 (dose needed to prevent biofilm formation by 50%). The higher the therapeutic index, the broader the safety window of the compound.
(§2) Murine leukemia (L1210), human T-lymphocyte (CEM) and human cervix carcinoma (HeLa) were suspended at 300,000–500,000 cells/mL of culture medium, and 100 µL of a cell suspension was added to 100 µL of an appropriate dilution of the test compounds in 200 µL-wells of 96-well microtiter plates. After incubation at 37 °C for two (L1210), three (CEM) or four (HeLa) days, the cell number was determined using a Coulter counter. The IC50 was defined as the compound concentration required to inhibit cell proliferation by 50%.

In data set [3] the test system is human cervix carcinoma (HeLa). The description is as above. The data set is classed as cell-based. Conditions: 96 h, concentration inhibiting cell proliferation by 50%, four days incubation, mean of three repeats. How it is done:
as §1, §2

For data set [4], the system named is murine leukemia (L1210). The data set is described as above. To be noted: Mus musculus, L1210, 48 h; concentration inhibiting cell proliferation by 50%; two days incubation; mean of three repeats. Type of data set: cell-based. How it is done:
as §1, §2

The test system of data set [5] is C. elegans. The data set is classed as in vivo, Caenorhabditis elegans. Conditions: for C. elegans % survival at 25 µM: after 7 days relative to viability at day 0, mean of at least two repeats. As for the experimental part:
Eggs of a double mutant (glp-4Dsek-1D) of C. elegans were grown on NGM/OP50 agar plates (NGM agar plates on the surface inoculated with 100 µL of an overnight culture of OP50 Escherichia coli and stored at 4 °C until use) at 25 °C until all nematodes had reached the L4 stage. Worms were collected and washed with M9 buffer (3 g/L KH2PO4, 6 g/L Na2HPO4, 5 g/L NaCl, 1 mM MgSO4). For toxicity testing, 40 to 50 worms were suspended in 250 μL M9 (supplemented with 10 µg/mL cholesterol, 75 µg/mL ampicillin and 100 µg/mL kanamycin) buffer in each well of 24-well microtiter plates, in the presence or absence (0.5% DMSO control) of 25, 100 or 200 µM of the test compounds and grown for 7 days at 25 °C. The percentage survival of the worms in the presence or absence of anti-biofilm compounds was calculated after 7 days relative to their viability at day 0.

Data set [6] deals with human bone marrow-derived mesenchymal stem cells (MSC). Kind of data set: Cytotoxicity against bone cells, trypan blue staining. Type of data set: cell-based. How it is done:
(§3) The cytotoxicity of the compounds was measured on cell cultures of two cell types represented in bone tissue, namely human osteoblasts (OB) and human bone marrow-derived mesenchymal stem cells (MSC). These tests were conducted according to ISO 10993-5 cytotoxicity standard. The cells were seeded in a 96-well plate at a density of 5000 cells/cm^2 in cell culture media (Advanced DMEM, 10% FBS, 1× GlutaMAX, 0.05 mg/mL gentamicin) and allowed to attach overnight. […]
(§4) Trypan blue staining: the medium was removed from the wells, and 1/3 trypan blue in DMEM medium was added to the cells, incubated for 3 min, after which trypan blue was removed and DMEM medium was added to the wells. In each of four wells, two microscopy fields were counted for viable (transparent) and dead (blue) cells.

Data set [7] concerns human osteoblasts (OB). The data set is described as above. Type of data set: cell-based. As for the experimental part: as §3, §4
Data set [8] relates to human bone marrow-derived mesenchymal stem cells (MSC). Kind of data set: Metabolic activity of bone cells, MTT staining. The data set is classed as cell-based. To be noted: 12.5 µM, 6 days exposure, MTT staining (results not shown). How it is done:
(§5) The cytotoxicity of the compounds was measured on cell cultures of two cell types represented in bone tissue, namely human osteoblasts (OB) and human bone marrow-derived mesenchymal stem cells (MSC). These tests were conducted according to ISO 10993-5 cytotoxicity standard. The cells were seeded in a 96-well plate at a density of 5000 cells/cm^2 in cell culture media (Advanced DMEM, 10% FBS, 1× GlutaMAX, 0.05 mg/mL gentamicin) and allowed to attach overnight. The next day the test compounds (12.5 μM) and controls were added to the cells (negative controls were cell culture medium and cell culture medium with 0.5% DMSO background, positive control was 0.05% phenol to show a cytotoxic effect) and incubated for 2h, 48h and 6 days and at each time-point the numbers of viable and dead cells were determined by trypan blue staining, and the metabolic activity was determined with MTT staining.
(§6) MTT: the medium was removed from the wells and 100 μL of medium, supplemented with 10% serum and 0.5 mg/mL MTT was added to the cells. The cells were incubated overnight at 37 °C and 5% CO2. The next day the medium with MTT was removed and 100 μL acidic isopropanol was added. The cells were then centrifuged at 2300 g and 50 μL of the supernatant was transferred to a new 96-well plate. The absorbance was measured at 570 nm and the background was measured at 660 nm. Four wells per condition were examined.

Data set [9] has as its system human osteoblasts (OB). The experiment in a line: Metabolic activity of bone cells, MTT staining. Type of data set: cell-based. To be noted: 12.5 µM, 6 days exposure, MTT staining (results not shown). As for the experimental part: as §5, §6
Data set [10] relates to S. Typhimurium biofilm. Conditions: concentration preventing biofilm formation (at 25 °C) by 50%; as previously reported ref 13, 14, 15, 16; read-out: BIC50 S. Typhimurium; cited from earlier work.
The test system of data set [11] is P. aeruginosa biofilm. To be noted: concentration preventing biofilm formation (at 25 °C) by 50%; as previously reported ref 13, 14, 15, 16; read-out: BIC50 P. aeruginosa; cited from earlier work.
The subject of data set [12] is mesenchymal stem cells (MSC). Kind of data set: Calcium assay for osteogenic differentiation potential. The data set is classed as cell-based, human. Conditions: 12.5 µM, 5 weeks (Figure 6) or 3 weeks (methods) of exposure. How it is done:
(§7) MSC and OB were cultured in osteogenic medium for 3 and 5 weeks, respectively. The experimental groups included a positive solvent control (osteogenic medium with 0.5% DMSO background), a negative control (medium without osteogenic supplements) and treated samples (osteogenic medium, 0.5% DMSO background and 12.5 µM of test compound). Cell cultures were extracted by 5% trichloroacetic acid (500 μL per sample). O-Cresolphtalein complex was added (Calcium CPC LiquiColor Test®; Stanbio Laboratory, Boerne, TX, USA), and the calcium content was determined spectrophotometrically at 550 nm.
(§8) To determine the DNA content, cells were washed with PBS, and 200 μL of digestion buffer (10 mM Tris, 1 mM EDTA, 0.1% Triton X-100, 0.1 mg/mL proteinase K) was added. Samples were incubated in digestion buffer overnight at 56 °C. The supernatants were drawn off and PicoGreen® dye (Molecular Probes, Eugene, OR, USA) was added to the samples in 1:1 ratio and read in a fluorescent plate reader (excitation 485 nm and emission 528 nm). DNA values were used to normalize the calcium content. Four wells per condition were examined, and two samples from each well were taken for each assay.

The test system of data set [13] is osteoblasts (OB). The description is as above. Type of data set: cell-based, human. Conditions: 12.5 µM, 3 weeks (Figure 6) or 5 weeks (methods) of exposure. How it is done:
as §7, §8

[14] abbreviates: 12.5 µM, 48h exposure, trypan blue.
Where [15] appears, read: 12.5 µM, after 48h and after 6 days of exposure, trypan blue.

On to `COc1ccc(Cc2nc(N)n(C)c2Cc2cc(O)c(OC)c(OC)c2)cc1` [2e, naamine C], for which the “cytotoxicity to a variety of cell lines” value in data set [1] is reported as “cytotoxic”.
Consider `COc1ccc(Cc2nc(N)n(C)c2Cc2cc(O)c(OC)c(O)c2)cc1` [2f, naamine E], for which, in data set [1], the “cytotoxicity to a variety of cell lines” value was “cytotoxic”.
On to `COc1ccc(Cc2nc(N)n(C)c2Cc2ccc(O)c(OC)c2)cc1` [2g, naamine F], for which the “cytotoxicity to a variety of cell lines” value in data set [1] is “cytotoxic”.
Take `COc1ccc(Cc2[nH]c(=N)n(C)c2Cc2cc(OC)c(O)c(OC)c2)cc1` [2h, naamine G]: the “cytotoxicity to a variety of cell lines” value in data set [1] is listed as “cytotoxic”.
Turning to `COc1ccc(Cn2cc(Cc3ccc(OC)c(OC)c3)nc2/N=C2/NC(=O)N(C)C2=O)cc1` [2i, isonaamidine E], in data set [1], the “cytotoxicity to a variety of cell lines” value is reported as “cytotoxic”.
In the case of `COc1ccc(Cc2[nH]/c(=N\C3=NC(=O)N(C)C3=O)n(C)c2Cc2cc(OC)c(O)c(OC)c2)cc1` [2k, naamidine H], the “cytotoxicity to a variety of cell lines” value in [1] was “cytotoxic”.
For the compound `C/N=C1N=C(/N=c2\[nH]c(Cc3ccc(OC)cc3)c(Cc3cc(OC)c(O)c(OC)c3)n2C)C(=O)N\1C` [2l, naamidine I], the “cytotoxicity to a variety of cell lines” value in [1] is on record as “cytotoxic”.
On to `CCCCCCCCn1c(-c2ccc(Cl)cc2)cnc1N` [compound 7], for which the IC50 is 357 µM in [2]; 4.5 µM in data set [3]; 3.9 µM in [4]; 5.9 µM in [10]; 4 µM in data set [11]. Besides, the “C. elegans % survival at 25 µM” value in data set [5] is given as 86.6%. The “effect on C. elegans survival at 100 µM” value in [5] (7 days of exposure) is given as “none of the compounds significantly affect”. For the same compound, the “inhibition of C. elegans survival at 200 µM” value in data set [5] (200 µM, 7 days of exposure) is “more than 50%”. The “reduction of proliferation as compared to the solvent control” value in [6] (setting [14]) and in data set [7] (setting [14]) was greater than 70% each time. In addition, the “reduction of viability as compared to the solvent control” value in [6] (setting [14]) and in data set [7] (setting [14]) was greater than 70% throughout. Further, the “reduction of metabolic activity as compared to the untreated controls” value in [8] and in data set [9] was greater than 80% throughout.
Take `c1ccc(-c2cnc(NC3CCCC3)[nH]2)cc1` [compound 20]: the IC50 is 293 µM in data set [2]; 27.3 µM in data set [3]; 27.3 µM in data set [4]; 52.9 µM in data set [10]; 33.8 µM in data set [11]. In addition, in data set [5], the “C. elegans % survival at 25 µM” value amounted to 98.1%.
Regarding `CC(C)CNc1ncc(-c2ccc(Cl)cc2)[nH]1` [compound 22], the IC50 in data set [2] is 297 µM; in data set [3], 172 µM; in data set [4], 336 µM; in data set [10], 2 µM; in data set [11] it was 0.9 µM. In [5], the “C. elegans % survival at 25 µM” value was found to be 97.6%. For the same compound, in data set [5] (7 days of exposure), the “effect on C. elegans survival at 100 µM” value is given as “none of the compounds significantly affect”. For the same compound, the “effect on C. elegans survival at 200 µM” value in data set [5] (200 µM, 7 days of exposure) was “do not significantly affect survival”. Further, the “effect on proliferation and viability” value in data set [6] (setting [15]) and in data set [7] (setting [15]) was “do not or only slightly reduce” throughout. Further, the “survival of cells after 4 weeks of exposure” value in data set [6] (4 weeks of exposure) and in data set [7] (4 weeks of exposure) was “allow survival” each time. Also, the “effect on metabolic activity” value in [8] and in data set [9] was “slightly enhance” in each case. Besides, the “calcium deposition compared to the solvent control (osteogenic differentiation potential)” value in data set [12] and in data set [13] was “none of the compounds does negatively affect; also recorded: significantly (p < 0.05) induces” in each case.
For the compound `Clc1ccc(-c2cnc(NC3CCCC3)[nH]2)cc1` [compound 24], the IC50 is 591 µM in data set [2]; 28.8 µM in data set [3]; 35.5 µM in data set [4]; 4.4 µM in [10]; 13.5 µM in data set [11]. Besides, in data set [5], the “C. elegans % survival at 25 µM” value turned out to be 100.1%.
Take `c1ccc(-c2cn(CCCNc3ncc(-c4ccccc4)[nH]3)nn2)cc1` [compound 36]: the IC50 is 453 µM in data set [2]; 72.9 µM in [3]; 221 µM in data set [4]; 36.5 µM in [10]; greater than 400 µM in [11]. Also, in data set [5], the “C. elegans % survival at 25 µM” value was 87.7%.
As for `c1ccc(-c2cn(CCCCNc3ncc(-c4ccccc4)[nH]3)nn2)cc1` [compound 37], the IC50 in data set [2] was 459 µM; in data set [3] it was 107 µM; in data set [4] it was 218 µM; in data set [10], 40 µM; in data set [11], 19 µM. Moreover, the “C. elegans % survival at 25 µM” value in data set [5] was found to be 86.4%.
Regarding `Brc1ccc(-c2cnc(NCCCn3cc(C4CCCCC4)nn3)[nH]2)cc1` [compound 39], the IC50 in [2] was 396 µM; in data set [3] it was 22.5 µM; in data set [4], 20.7 µM; in data set [10], 8.4 µM; in data set [11], ~12.5 µM and 12.5 µM. For the same compound, the “C. elegans % survival at 25 µM” value in [5] is recorded as 99.3%.
